Measured values published in patent US8952024B2, “Herbicidal pyrimidone derivatives” (E I du Pont de Nemours and Company, priority 2009, dated 2015).

How the values were obtained:
Format in all cases: in vivo
[1] = system: barnyardgrass (Echinochloa crus-galli); assay: Test A pre-/postemergence plant response
Procedure, shortened: (§1)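 Greenhouse pots of loam/sand received directed preemergence soil sprays or postemergence sprays (plants 2–10 cm, 1–2 leaf stage), compounds formulated in non-phytotoxic solvent with surfactant. Injury was rated visually versus untreated controls after about ten days on a 0 (no effect) to 100 (complete control) scale.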

corn (Zea mays) = assay: Test A pre-/postemergence plant response
Procedure, shortened: as §1

[2] = system: giant foxtail (Setaria faberii); assay: Test A pre-/postemergence plant response
Procedure, shortened: as §1

[3] = system: large crabgrass (Digitaria sanguinalis); assay: Test A pre-/postemergence plant response
Procedure, shortened: as §1

[4] = system: morningglory (Ipomoea spp.); assay: Test A pre-/postemergence plant response
Procedure, shortened: as §1

[5] = system: pigweed (Amaranthus retroflexus); assay: Test A pre-/postemergence plant response
Procedure, shortened: as §1

[6] = system: velvetleaf (Abutilon theophrasti); assay: Test A pre-/postemergence plant response
Procedure, shortened: as §1

[7] = system: wheat (Triticum aestivum); assay: Test A pre-/postemergence plant response
Procedure, shortened: as §1

[8] = system: winter barley (Hordeum vulgare); assay: Test B postemergence plant response; details: for Barley plant response rating (0 to 100 scale): 62 g ai/ha, postemergence, 0 is no effect, 100 is complete control; for Plant response rating, Barley: Postemergence
Procedure, shortened: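 Plants grown in peat/vermiculite medium were sprayed postemergence at 2–18 cm height (1- to 4-leaf stage). After 13–15 days in the greenhouse, response was rated visually against untreated controls on a 0–100 scale (0 no effect, 100 complete control).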

[9] = system: barnyardgrass (Echinochloa crus-galli); assay: Test B flooded paddy test; details: for Plant response rating, Flood, Barnyardgrass: 250 g ai/ha, flooded paddy test, visual rating on 0 to 100 scale (0 no effect, 100 complete control) after 13 to 15 days; for Plant response rating, Barnyardgrass: Flood (flooded paddy test), 13 to 15 days; for Barnyardgrass plant response rating: Flood, 31 g ai/ha, scale 0 to 100 (0 no effect, 100 complete control)
Procedure, shortened: (§2)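 Visual scores run from 0 (no effect) to 100 (complete control), assigned by comparison with controls 13 to 15 days after treatment. Test compounds went straight into water standing 3 cm above the soil, around plants at the 2-leaf stage kept in a greenhouse.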

[10] = system: ducksalad (Heteranthera limosa); assay: Test B flooded paddy test; details: for Plant response rating, Flood, Ducksalad: 250 g ai/ha, flooded paddy test, visual rating on 0 to 100 scale (0 no effect, 100 complete control) after 13 to 15 days; for Plant response rating, Ducksalad: Flood (flooded paddy test), 13 to 15 days; for Ducksalad plant response rating: Flood, 31 g ai/ha, scale 0 to 100 (0 no effect, 100 complete control)
Procedure, shortened: as §2

rice (Oryza sativa) = assay: Test B flooded paddy test; details: for Plant response rating, Flood, Rice: 250 g ai/ha, flooded paddy test, visual rating on 0 to 100 scale (0 no effect, 100 complete control) after 13 to 15 days; for Plant response rating, Rice: Flood (flooded paddy test), 13 to 15 days; for Rice plant response rating: Flood, 31 g ai/ha, scale 0 to 100 (0 no effect, 100 complete control)
Procedure, shortened: as §2

[11] = system: umbrella sedge (Cyperus difformis); assay: Test B flooded paddy test; details: for Plant response rating, Flood, Sedge, Umbrella: 250 g ai/ha, flooded paddy test, visual rating on 0 to 100 scale (0 no effect, 100 complete control) after 13 to 15 days; for Plant response rating, Sedge, Umbrella: Flood (flooded paddy test), 13 to 15 days; for Sedge, Umbrella plant response rating: Flood, 31 g ai/ha, scale 0 to 100 (0 no effect, 100 complete control)
Procedure, shortened: as §2

[12] = Postemergence, 125 g ai/ha, 0 to 100 scale where 0 is no effect and 100 is complete control
[13] = Postemergence, 500 g ai/ha, 0 to 100 scale, 0 = no effect, 100 = complete control, approx. ten days
[14] = Preemergence, 125 g ai/ha, 0 to 100 scale, 0 = no effect, 100 = complete control
[15] = Preemergence, 500 g ai/ha, visual injury, 0 to 100 scale (0 no effect, 100 complete control), approx. ten days
[16] = Preemergence, 500 g ai/ha, 0 to 100 scale, 0 = no effect, 100 = complete control
[17] = 31 g ai/ha, 0 to 100 scale (0 no effect, 100 complete control)
[18] = 125 g ai/ha, scale 0 to 100 (0 no effect, 100 complete control)
[19] = 250 g ai/ha, scale 0 to 100 (0 no effect, 100 complete control), 13 to 15 days
[20] = 62 g ai/ha, scale of 0 to 100 where 0 is no effect and 100 is complete control
[21] = 125 g ai/ha, scale 0 to 100, 0 is no effect, 100 is complete control

CCCn1c(-c2cccc(C(F)(F)F)c2)ncc(C(=O)C2=C(O)CCCC2=O)c1=O [Compound 155]
20: Plant response rating, Corn (corn (Zea mays); [12]) | Plant response rating, Barnyardgrass [9, 21]
45: Plant response rating, Barley [8, 18] | Plant response rating, Flood, Barnyardgrass [9] | Plant response rating, Flood, Rice (rice (Oryza sativa))
0: Plant response rating, Corn (corn (Zea mays); [14]) | Plant response rating, Morningglory [4, 14] | Plant response rating, Morningglory [4, 15] | Plant response rating, Wheat [7, 12] | Plant response rating, Wheat [7, 14] | Plant response rating, Wheat [7, 16] | Plant response rating, Barnyardgrass [9, 20] | Barnyardgrass plant response rating [9] | Ducksalad plant response rating [10] | Plant response rating, Rice (rice (Oryza sativa); [20]) | Rice plant response rating (rice (Oryza sativa))
85: Plant response rating, Barley [8, 19] | Plant response rating, Ducksalad [10, 21] | Plant response rating, Sedge, Umbrella [11, 21]
30: Plant response rating, Corn (corn (Zea mays); [15]) | Plant response rating, Foxtail, Giant [2, 14] | Plant response rating, Wheat [7, 13] | Barley plant response rating (0 to 100 scale) ([8]; 13 to 15 days) | Plant response rating, Barley [8, 17]
40: Plant response rating, Corn (corn (Zea mays); [13])
25: Plant response rating, Rice (rice (Oryza sativa); [21])
100: Plant response rating, Barnyardgrass [1, 13] | Plant response rating, Morningglory [4, 12] | Plant response rating, Morningglory [4, 13] | Plant response rating, Pigweed [5, 12] | Plant response rating, Pigweed [5, 13] | Plant response rating, Velvetleaf [6, 12] | Plant response rating, Velvetleaf [6, 13] | Plant response rating, Velvetleaf [6, 16] | Plant response rating, Flood, Sedge, Umbrella [11]
95: Plant response rating, Flood, Ducksalad [10]
70: Plant response rating, Crabgrass, Large [3, 12]
90: Plant response rating, Barnyardgrass [1, 12] | Plant response rating, Barnyardgrass [1, 15] | Plant response rating, Foxtail, Giant [2, 13] | Plant response rating, Crabgrass, Large [3, 13] | Plant response rating, Crabgrass, Large [3, 15] | Plant response rating, Pigweed [5, 14] | Plant response rating, Pigweed [5, 15]
60: Plant response rating, Foxtail, Giant [2, 15] | Plant response rating, Crabgrass, Large [3, 14] | Plant response rating, Velvetleaf [6, 14] | Plant response rating, Ducksalad [10, 20] | Plant response rating, Sedge, Umbrella [11, 20] | Sedge, Umbrella plant response rating [11]
80: Plant response rating, Foxtail, Giant [2, 12]
10: Plant response rating, Barnyardgrass [1, 14]

CCCn1c(-c2cc(C)cc(C)c2)ncc(C(=O)C2=C(O)CCCC2=O)c1=O [Compound 156]
95: Plant response rating, Sedge, Umbrella [11, 20]
20: Plant response rating, Corn (corn (Zea mays); [12]) | Plant response rating, Corn (corn (Zea mays); [13]) | Plant response rating, Corn (corn (Zea mays); [15]) | Plant response rating, Wheat [7, 13] | Plant response rating, Barnyardgrass [9, 20] | Plant response rating, Rice (rice (Oryza sativa); [21])
70: Plant response rating, Crabgrass, Large [3, 12] | Plant response rating, Pigweed [5, 14]
80: Plant response rating, Barnyardgrass [1, 15] | Plant response rating, Foxtail, Giant [2, 12] | Plant response rating, Crabgrass, Large [3, 13] | Plant response rating, Pigweed [5, 15] | Plant response rating, Ducksalad [10, 21]
30: Plant response rating, Barley [8, 17] | Plant response rating, Rice (rice (Oryza sativa); [20]) | Rice plant response rating (rice (Oryza sativa))
10: Plant response rating, Foxtail, Giant [2, 14] | Plant response rating, Crabgrass, Large [3, 14]
50: Plant response rating, Foxtail, Giant [2, 15] | Plant response rating, Crabgrass, Large [3, 15] | Plant response rating, Velvetleaf [6, 16]
90: Plant response rating, Barnyardgrass [1, 12] | Plant response rating, Barnyardgrass [1, 13] | Plant response rating, Foxtail, Giant [2, 13]
35: Plant response rating, Flood, Rice (rice (Oryza sativa))
0: Plant response rating, Barnyardgrass [1, 14] | Plant response rating, Corn (corn (Zea mays); [14]) | Plant response rating, Morningglory [4, 14] | Plant response rating, Morningglory [4, 15] | Plant response rating, Velvetleaf [6, 14] | Plant response rating, Wheat [7, 12] | Plant response rating, Wheat [7, 14] | Plant response rating, Wheat [7, 16] | Barnyardgrass plant response rating [9] | Ducksalad plant response rating [10] | Sedge, Umbrella plant response rating [11]
40: Plant response rating, Barnyardgrass [9, 21]
85: Plant response rating, Barley [8, 19]
45: Barley plant response rating (0 to 100 scale) ([8]; 13 to 15 days)
100: Plant response rating, Morningglory [4, 12] | Plant response rating, Morningglory [4, 13] | Plant response rating, Pigweed [5, 12] | Plant response rating, Pigweed [5, 13] | Plant response rating, Velvetleaf [6, 12] | Plant response rating, Velvetleaf [6, 13] | Plant response rating, Flood, Ducksalad [10] | Plant response rating, Flood, Sedge, Umbrella [11] | Plant response rating, Sedge, Umbrella [11, 21]
60: Plant response rating, Barley [8, 18] | Plant response rating, Flood, Barnyardgrass [9]
65: Plant response rating, Ducksalad [10, 20]
